Experimental data taken from ChEMBL document CHEMBL4342416, “Indole: A privileged scaffold for the design of anti-cancer agents” (Eur J Med Chem, 2019).
Converted amounts (≈) assume the structure as drawn. Blank lines part the entries; values can stand above or below the molecule they belong to.

How the values were obtained:
A549 [1] = assay: Antiproliferative activity against human A549 cells assessed as reduction in cell viability after 48 hrs by MTT assay; type: functional, cell-based; conditions: A549, 48 h
HT-29 = assay: Antiproliferative activity against human HT-29 cells assessed as reduction in cell viability after 48 hrs by MTT assay; type: functional, cell-based; conditions: HT-29, 48 h
[2] = target: Induced myeloid leukemia cell differentiation protein Mcl-1 (Homo sapiens, UniProt Q07820); assay: Inhibition of MCL1 (unknown origin)
Histone deacetylase 2 = Histone deacetylase 2 (Homo sapiens, UniProt Q92769); assay: Inhibition of HDAC2 (unknown origin)
Histone deacetylase 3 = Histone deacetylase 3 (Homo sapiens, UniProt O15379); assay: Inhibition of HDAC3 (unknown origin)
Histone deacetylase 1 = Histone deacetylase 1 (Homo sapiens, UniProt Q13547)
Description: Inhibition of HDAC1 (unknown origin)

[3] = target: Polyamine deacetylase HDAC10 (Homo sapiens, UniProt Q969S8); assay: Inhibition of HDAC10 (unknown origin)
HeLa = assay: Antiproliferative activity against human HeLa cells assessed as reduction in cell viability after 48 hrs by MTT assay; type: functional, cell-based
MCF7 [4] = assay: Antiproliferative activity against human MCF7 cells assessed as reduction in cell viability after 48 hrs by MTT assay; type: functional, cell-based; conditions: MCF7, 48 h
HepG2 [5] = assay: Antiproliferative activity against human HepG2 cells assessed as reduction in cell viability after 48 hrs by MTT assay; type: functional, cell-based; conditions: HepG2, 48 h
Tubulin = Tubulin (Bos taurus, UniProt Q6B856+Q862L2+Q862F3); assay: Inhibition of bovine brain tubulin polymerization by spectrometric analysis
HepG2 [6] = assay: Antiproliferative activity against human HepG2 cells assessed as reduction in cell viability after 72 hrs by MTT assay; type: functional, cell-based; conditions: HepG2, 72 h
K562 [7] = assay: Antiproliferative activity against human K562 cells assessed as reduction in cell viability after 72 hrs by MTT assay; type: functional, cell-based; conditions: K562, 72 h
A549 [8] = assay: Antiproliferative activity against human A549 cells assessed as reduction in cell viability after 72 hrs by MTT assay; type: functional, cell-based; conditions: A549, 72 h
[9] = Inhibition of bovine brain microtubule polymerization incubated for 60 mins by spectrophotometric method; parameters: species or system Bos taurus
Aromatase = Aromatase (Homo sapiens, UniProt P11511); assay: Inhibition of recombinant human CYP19 using MFC as substrate incubated for 30 mins in presence of NADPH by fluorescence based assay
HCT-116 = assay: Antiproliferative activity against human HCT116 cells assessed as reduction in cell viability by MTT assay; type: functional, cell-based
LoVo = assay: Antiproliferative activity against human LoVo cells assessed as reduction in cell viability by MTT assay; type: functional, cell-based
HepG2 [10] = assay: Antiproliferative activity against human HepG2 cells assessed as reduction in cell viability by MTT assay; type: functional, cell-based
MCF7 [11] = assay: Antiproliferative activity against human MCF7 cells assessed as reduction in cell viability by MTT assay; type: functional, cell-based
Histone deacetylase 8 = Histone deacetylase 8 (Homo sapiens, UniProt Q9BY41); assay: Inhibition of HDAC8 (unknown origin) by fluorescence based assay
[12] = target: Protein deacetylase HDAC6 (Homo sapiens, UniProt Q9UBN7); assay: Inhibition of HDAC6 (unknown origin) by fluorescence based assay
K562 [13] = assay: Antiproliferative activity against human K562 cells assessed as reduction in cell viability by MTT assay; type: functional, cell-based
HuCC-A1 = assay: Antiproliferative activity against human HuCCa1 cells assessed as reduction in cell viability after 3 days by MTT assay; type: functional, cell-based; conditions: HuCC-A1, 72 h
[14] = target: Sigma non-opioid intracellular receptor 1 (Cavia porcellus, UniProt Q60492); assay: Displacement of (+)-[3H]pentazocine from sigma1 receptor in guinea pig brain membranes; type: cell membranes
MOLT-3 = assay: Antiproliferative activity against human MOLT3 cells assessed as reduction in cell viability after 3 days by MTT assay; type: functional, cell-based; conditions: MOLT-3, 72 h
THP-1 = assay: Growth inhibition of human THP1 cells incubated for 72 hrs by trypan blue assay; type: functional; conditions: THP-1, 72 h
[15] = target: Bromodomain-containing protein 4 (Homo sapiens) (UniProt O60885); assay: Inhibition of GST-tagged BRD4 bromodomain 1/2 (unknown origin) at 10 uM incubated for 3 hrs by fluorescence based assay relative to control
[16] = target: Histone deacetylase 3/Nuclear receptor corepressor 2 (HDAC3/NCoR2) (Homo sapiens, UniProt O15379); assay: Inhibition of recombinant human C-terminal GST/His-tagged HDAC3 (1 to 428 residues) co-expressed with human N-terminal GST-tagged NCOR2 (395 to 489 residues) in baculovirus infected Sf9 cells using Boc-Lys(Ac)-AMC as substrate preincubated for 15 mins followed by substrate addition and measured after 60 mins by fluorometric method
Histone deacetylase 3/Nuclear receptor corepressor 2 (HDAC3/NCoR2), sequence (O15379 whole entry, the tested form may be a part): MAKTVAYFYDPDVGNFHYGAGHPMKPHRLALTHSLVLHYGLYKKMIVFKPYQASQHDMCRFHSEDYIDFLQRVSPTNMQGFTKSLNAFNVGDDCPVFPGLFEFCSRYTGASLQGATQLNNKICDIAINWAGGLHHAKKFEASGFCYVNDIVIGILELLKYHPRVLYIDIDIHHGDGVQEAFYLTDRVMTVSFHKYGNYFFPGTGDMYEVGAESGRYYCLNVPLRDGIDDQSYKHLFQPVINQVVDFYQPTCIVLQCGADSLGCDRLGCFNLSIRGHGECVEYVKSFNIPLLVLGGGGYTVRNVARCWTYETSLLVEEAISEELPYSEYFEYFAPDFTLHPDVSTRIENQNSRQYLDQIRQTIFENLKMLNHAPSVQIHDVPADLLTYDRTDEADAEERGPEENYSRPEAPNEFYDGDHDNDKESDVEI
Histone deacetylase 3/Nuclear receptor corepressor 2 (HDAC3/NCoR2), sequence (Q9Y618 whole entry, further chain, the tested form may be a part): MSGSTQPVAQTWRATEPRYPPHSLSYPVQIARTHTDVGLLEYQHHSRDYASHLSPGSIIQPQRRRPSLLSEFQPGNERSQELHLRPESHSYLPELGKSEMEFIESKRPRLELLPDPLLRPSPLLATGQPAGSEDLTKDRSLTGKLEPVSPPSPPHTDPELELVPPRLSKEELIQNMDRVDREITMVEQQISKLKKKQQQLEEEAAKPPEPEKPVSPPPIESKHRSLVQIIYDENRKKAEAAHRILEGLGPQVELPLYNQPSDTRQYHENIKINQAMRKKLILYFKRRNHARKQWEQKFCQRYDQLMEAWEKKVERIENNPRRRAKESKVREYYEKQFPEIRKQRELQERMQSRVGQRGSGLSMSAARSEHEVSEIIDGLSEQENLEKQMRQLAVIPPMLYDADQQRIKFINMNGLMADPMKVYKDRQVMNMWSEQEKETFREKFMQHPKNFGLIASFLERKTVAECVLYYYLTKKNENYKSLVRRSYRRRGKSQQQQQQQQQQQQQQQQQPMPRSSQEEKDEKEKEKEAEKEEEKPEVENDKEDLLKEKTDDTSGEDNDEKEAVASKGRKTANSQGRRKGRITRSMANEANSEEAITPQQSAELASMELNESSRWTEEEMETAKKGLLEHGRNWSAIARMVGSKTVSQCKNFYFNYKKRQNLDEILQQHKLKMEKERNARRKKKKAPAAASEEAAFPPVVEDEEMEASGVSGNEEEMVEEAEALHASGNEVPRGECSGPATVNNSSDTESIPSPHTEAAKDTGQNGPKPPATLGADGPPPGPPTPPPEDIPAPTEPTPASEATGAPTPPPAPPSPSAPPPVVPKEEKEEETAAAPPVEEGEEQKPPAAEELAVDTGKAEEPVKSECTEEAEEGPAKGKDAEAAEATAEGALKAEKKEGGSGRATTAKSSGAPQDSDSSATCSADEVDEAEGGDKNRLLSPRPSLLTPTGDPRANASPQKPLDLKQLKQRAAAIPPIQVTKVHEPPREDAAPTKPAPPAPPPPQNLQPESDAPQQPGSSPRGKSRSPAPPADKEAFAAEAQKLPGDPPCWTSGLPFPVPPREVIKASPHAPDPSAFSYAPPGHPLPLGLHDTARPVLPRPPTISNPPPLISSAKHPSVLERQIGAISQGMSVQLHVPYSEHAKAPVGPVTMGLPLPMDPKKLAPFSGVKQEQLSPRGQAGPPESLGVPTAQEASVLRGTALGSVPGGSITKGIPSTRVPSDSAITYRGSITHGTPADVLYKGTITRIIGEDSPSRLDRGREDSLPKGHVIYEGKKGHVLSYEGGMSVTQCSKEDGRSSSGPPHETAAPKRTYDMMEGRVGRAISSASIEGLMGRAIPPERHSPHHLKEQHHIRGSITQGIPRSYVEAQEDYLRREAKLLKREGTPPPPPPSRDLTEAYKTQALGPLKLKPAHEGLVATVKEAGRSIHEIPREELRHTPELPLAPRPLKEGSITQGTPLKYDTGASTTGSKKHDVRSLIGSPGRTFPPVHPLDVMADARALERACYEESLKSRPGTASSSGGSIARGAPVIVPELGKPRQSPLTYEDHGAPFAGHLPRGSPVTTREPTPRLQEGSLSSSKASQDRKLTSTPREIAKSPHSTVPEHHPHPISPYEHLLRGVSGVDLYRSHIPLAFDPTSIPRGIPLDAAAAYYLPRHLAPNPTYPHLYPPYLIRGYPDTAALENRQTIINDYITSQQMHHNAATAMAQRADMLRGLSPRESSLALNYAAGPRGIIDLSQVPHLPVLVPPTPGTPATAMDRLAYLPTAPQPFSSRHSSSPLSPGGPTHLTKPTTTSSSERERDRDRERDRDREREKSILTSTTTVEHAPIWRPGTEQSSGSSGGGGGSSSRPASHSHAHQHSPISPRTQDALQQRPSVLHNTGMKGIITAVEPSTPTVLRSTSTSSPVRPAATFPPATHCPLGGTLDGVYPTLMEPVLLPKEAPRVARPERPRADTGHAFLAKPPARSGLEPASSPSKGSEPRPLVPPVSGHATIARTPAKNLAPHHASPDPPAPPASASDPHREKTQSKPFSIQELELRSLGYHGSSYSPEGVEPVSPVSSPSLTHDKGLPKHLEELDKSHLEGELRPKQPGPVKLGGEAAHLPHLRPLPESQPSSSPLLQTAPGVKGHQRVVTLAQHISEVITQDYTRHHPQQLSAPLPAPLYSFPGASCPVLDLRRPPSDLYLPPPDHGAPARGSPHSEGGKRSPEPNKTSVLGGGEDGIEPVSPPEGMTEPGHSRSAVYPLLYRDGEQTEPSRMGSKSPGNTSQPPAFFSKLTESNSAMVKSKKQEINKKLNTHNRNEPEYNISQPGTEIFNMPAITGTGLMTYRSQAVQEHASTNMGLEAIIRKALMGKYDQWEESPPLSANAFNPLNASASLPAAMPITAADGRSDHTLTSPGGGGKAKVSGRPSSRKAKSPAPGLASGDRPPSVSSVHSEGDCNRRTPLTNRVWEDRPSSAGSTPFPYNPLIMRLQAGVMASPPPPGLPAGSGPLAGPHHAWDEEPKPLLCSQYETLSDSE

Histone deacetylase 3, sequence (O15379 whole entry): as the sequence (O15379 whole entry, the tested form may be a part) above
Histone deacetylase 8, sequence (Q9BY41 whole entry): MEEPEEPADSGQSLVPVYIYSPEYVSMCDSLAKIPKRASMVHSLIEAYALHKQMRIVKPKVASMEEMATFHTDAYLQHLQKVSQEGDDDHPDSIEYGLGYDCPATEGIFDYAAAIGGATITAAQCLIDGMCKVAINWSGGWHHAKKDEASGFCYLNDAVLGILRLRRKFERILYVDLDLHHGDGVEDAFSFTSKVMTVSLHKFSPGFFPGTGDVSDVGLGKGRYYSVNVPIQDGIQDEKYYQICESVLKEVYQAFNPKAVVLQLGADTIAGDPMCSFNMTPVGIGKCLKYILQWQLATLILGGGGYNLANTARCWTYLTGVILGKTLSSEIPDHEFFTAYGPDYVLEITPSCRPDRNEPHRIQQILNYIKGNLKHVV
Histone deacetylase 2, sequence (Q92769 whole entry): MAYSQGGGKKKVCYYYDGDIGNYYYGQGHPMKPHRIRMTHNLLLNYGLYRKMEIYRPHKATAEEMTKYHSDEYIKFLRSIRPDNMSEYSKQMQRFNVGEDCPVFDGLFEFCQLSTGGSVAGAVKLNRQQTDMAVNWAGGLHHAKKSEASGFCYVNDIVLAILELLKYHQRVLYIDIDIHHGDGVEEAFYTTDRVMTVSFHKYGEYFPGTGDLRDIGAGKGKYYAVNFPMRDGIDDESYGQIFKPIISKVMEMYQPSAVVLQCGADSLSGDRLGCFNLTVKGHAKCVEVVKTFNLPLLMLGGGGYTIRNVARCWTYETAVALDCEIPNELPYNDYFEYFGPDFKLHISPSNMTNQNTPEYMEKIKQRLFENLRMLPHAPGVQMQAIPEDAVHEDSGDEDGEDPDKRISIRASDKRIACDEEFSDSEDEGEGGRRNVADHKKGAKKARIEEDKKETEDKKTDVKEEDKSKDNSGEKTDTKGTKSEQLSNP
Protein deacetylase HDAC6, sequence (Q9UBN7 whole entry): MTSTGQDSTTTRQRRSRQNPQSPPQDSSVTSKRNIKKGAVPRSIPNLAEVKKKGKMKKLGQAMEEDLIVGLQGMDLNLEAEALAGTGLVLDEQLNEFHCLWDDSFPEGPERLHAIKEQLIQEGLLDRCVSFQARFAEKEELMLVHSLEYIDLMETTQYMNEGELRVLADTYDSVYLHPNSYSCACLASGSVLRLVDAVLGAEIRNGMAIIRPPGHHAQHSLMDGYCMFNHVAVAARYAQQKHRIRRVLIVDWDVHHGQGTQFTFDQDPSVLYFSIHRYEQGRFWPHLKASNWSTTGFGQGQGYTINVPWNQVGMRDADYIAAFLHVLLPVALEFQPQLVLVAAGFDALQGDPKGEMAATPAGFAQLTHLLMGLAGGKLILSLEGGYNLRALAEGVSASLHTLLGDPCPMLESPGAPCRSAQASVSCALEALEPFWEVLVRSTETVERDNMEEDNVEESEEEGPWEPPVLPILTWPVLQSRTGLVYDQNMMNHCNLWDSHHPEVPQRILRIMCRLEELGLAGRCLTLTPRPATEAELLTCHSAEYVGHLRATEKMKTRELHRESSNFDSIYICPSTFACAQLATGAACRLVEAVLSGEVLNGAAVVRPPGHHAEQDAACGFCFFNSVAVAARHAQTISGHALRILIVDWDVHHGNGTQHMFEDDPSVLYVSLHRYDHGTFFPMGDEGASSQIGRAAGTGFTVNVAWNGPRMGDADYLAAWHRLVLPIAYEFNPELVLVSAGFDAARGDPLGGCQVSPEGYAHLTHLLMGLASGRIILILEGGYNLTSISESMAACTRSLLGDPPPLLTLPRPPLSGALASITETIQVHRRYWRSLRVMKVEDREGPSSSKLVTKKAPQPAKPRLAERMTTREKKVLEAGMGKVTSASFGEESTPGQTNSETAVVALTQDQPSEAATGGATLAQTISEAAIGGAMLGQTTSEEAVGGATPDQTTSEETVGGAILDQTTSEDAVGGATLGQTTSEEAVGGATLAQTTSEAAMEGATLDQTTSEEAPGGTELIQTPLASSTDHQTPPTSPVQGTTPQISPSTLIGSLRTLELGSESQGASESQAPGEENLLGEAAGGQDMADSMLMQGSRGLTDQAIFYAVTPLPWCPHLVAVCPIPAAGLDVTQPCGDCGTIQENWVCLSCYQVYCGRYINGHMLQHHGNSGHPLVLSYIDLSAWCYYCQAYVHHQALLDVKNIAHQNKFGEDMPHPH

SMILES: CN1CCN(c2ncc([N+](=O)[O-])c(Nc3c(C(=O)c4cccs4)[nH]c4cc(Cl)ccc34)n2)CC1
IC50 (A549 [1]): 14400 nM | IC50 (HT-29): 5560 nM

SMILES: COc1cc(C2=NN(C(N)=O)C(c3cn(C)c4ccc(Br)cc34)C2)cc(OC)c1OC (stereo unspecified)
IC50 (A549 [1]): 260 nM | IC50 (HeLa): 210 nM | IC50 (MCF7 [4]): 290 nM | IC50 (HepG2 [5]): 310 nM | IC50 (Tubulin): 2120 nM

SMILES: COc1cc(S(=O)(=O)/C=C/c2cccc3[nH]ccc23)cc(OC)c1OC
IC50 (HepG2 [6]): 75 nM | IC50 (K562 [7]): 55 nM | IC50 (A549 [8]): 305 nM

SMILES: CC[C@]1(O)C[C@H]2CN(CCc3c([nH]c4ccccc34)[C@@](C(=O)OC)(c3cc4c(cc3OC)N(C=O)[C@H]3[C@@](O)(C(=O)OC)[C@H](OC(C)=O)[C@]5(CC)C=CCN6CC[C@]43[C@@H]65)C2)C1 [VINCRISTINE]
Ki [9]: 85 nM

SMILES: COc1ccc2[nH]cc(Cn3cc(COc4ccc(/C=C/C(=O)NO)cc4OC)nn3)c2c1
IC50 (HCT-116): 3570 to 6210 nM | IC50 (LoVo): 3570 to 6210 nM | IC50 (HepG2 [10]): 3570 to 6210 nM | IC50 (MCF7 [11]): 3570 to 6210 nM | IC50 (Histone deacetylase 8): 380 nM | IC50 [12]: 290 nM | IC50 (K562 [13]): 3570 to 6210 nM

Second part, led by results:

Ki [2]: 2.4 nM
SMILES: Cc1cc(OCCCc2c(C(=O)NS(=O)(=O)c3ccc(C(=O)NCc4ccccc4)o3)[nH]c3c(-c4c(C)n[nH]c4C)c(Cl)ccc23)cc(C)c1Cl

IC50 (Histone deacetylase 2): 160 nM | IC50 (Histone deacetylase 3): 67 nM | IC50 (Histone deacetylase 1): 95 nM | IC50 [3]: 78 nM
SMILES: Nc1ccc(F)cc1NC(=O)c1ccc(CNC(=O)/C=C/c2cccnc2)cc1

IC50 (Aromatase): 8720 nM
SMILES: Cc1[nH]c2ccccc2c1/C=N\Nc1ccc(Cl)cc1

IC50 (A549 [8]): 8740 nM
SMILES: O=S(=O)(NCCc1c(C(c2ccccc2O)c2[nH]c3ccccc3c2CCNS(=O)(=O)c2ccc(Cl)cc2)[nH]c2ccccc12)c1ccc(Cl)cc1
IC50 (HuCC-A1): 7750 nM

Ki [14]: 5.34 nM
SMILES: COc1cc2c(cc1OC)CN(CCCCc1cn(-c3ccc(F)cc3)c3ccccc13)CC2

IC50 (MOLT-3): 3.95 µg/mL (≈ 4.97 µM)
SMILES: O=[N+]([O-])c1ccc(S(=O)(=O)NCCc2c(C(c3ccccc3O)c3[nH]c4ccccc4c3CCNS(=O)(=O)c3ccc([N+](=O)[O-])cc3)[nH]c3ccccc23)cc1

GI50 (THP-1): 7820 to 24200 nM | inhibition [15]: 88% | IC50 [16]: 5 nM
SMILES: Cc1noc(C)c1-c1ccc2c(c1)c(Cc1ccc(F)cc1)cn2CCCCCCC(=O)NO
